Here are results for 14 compounds from PubChem BioAssay (NCI).

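Five compound concentrations were applied to cells in 96-well plates for 48 hours; endpoints were derived by simple linear interpolation of the resulting dose-response curve. The concentration for full growth arrest is given as TGI.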

Among the test systems are SK-MEL-28 melanoma; MALME-3M melanoma; HOP-92 NSCLC; K-562 leukemia; SK-MEL-2 melanoma; 786-0 renal; SN12C renal; KM12 colon; ACHN renal; OVCAR-4 ovarian; MDA-N.
Holding throughout (test): inhibition of tumour cell growth, NCI panel, 48 h

With `COc1ccc(-c2nc(-c3cc4ccccc4oc3=O)cs2)cc1`, the TGI in the assay with SK-MEL-28 melanoma, in the assay with MALME-3M melanoma, in the assay on HOP-92 NSCLC, in the assay with K-562 leukemia, with SK-MEL-2 melanoma and in the assay on 786-0 renal was over 100 µM throughout. Moreover, the TGI in the assay with SN12C renal, with KM12 colon, in the assay with ACHN renal and in the assay on OVCAR-4 ovarian was over 100 µM throughout.
As for `C1#Cc2ccccc2OCCOc2ccccc2C#Cc2ccccc2OCCOc2ccccc21`, the TGI in the assay on SK-MEL-28 melanoma was over 100 µM; in the assay on MALME-3M melanoma it was 73 µM; in the assay on K-562 leukemia, 24.3 µM; in the assay with MDA-N it was over 100 µM; with SK-MEL-2 melanoma, over 100 µM; in the assay on 786-0 renal it was 28.8 µM. In addition, the TGI was over 100 µM with SN12C renal, over 100 µM in the assay with KM12 colon, 37.9 µM in the assay with ACHN renal and 30.6 µM in the assay on OVCAR-4 ovarian.
Consider `COC(=O)c1ccccc1C#CCCCOS(C)(=O)=O`, for which the TGI with SK-MEL-28 melanoma, with MALME-3M melanoma, in the assay on K-562 leukemia, with MDA-N, in the assay on SK-MEL-2 melanoma and in the assay with 786-0 renal was over 10 µM in each case. Moreover, the TGI in the assay with SN12C renal, with KM12 colon, in the assay on ACHN renal and in the assay with OVCAR-4 ovarian was over 10 µM throughout.
In the case of `CC(=O)NC1C(OCc2ccccc2)OC(CO)C(O)C1OCC(=O)NC(C)C(=O)NC(CCC(=O)NCCCCCNc1c2ccccc2nc2cccc([N+](=O)[O-])c12)C(N)=O` (configuration not stated), the TGI in the assay on SK-MEL-28 melanoma is under 0.0001 µM; in the assay on MALME-3M melanoma it was under 0.0001 µM; with HOP-92 NSCLC, 0.00311 µM; with K-562 leukemia it was under 0.0001 µM; in the assay on SK-MEL-2 melanoma it was under 0.0001 µM; in the assay on 786-0 renal, 0.000206 µM. The TGI is under 0.0001 µM in the assay on SN12C renal, under 0.0001 µM in the assay with KM12 colon, under 0.0001 µM with ACHN renal and 0.00615 µM in the assay with OVCAR-4 ovarian.
With `O=C(NCCCCNCCCNC(=O)c1ccccc1)c1ccccc1`, the TGI with SK-MEL-28 melanoma, with HOP-92 NSCLC, in the assay with K-562 leukemia, with SK-MEL-2 melanoma, in the assay on 786-0 renal and in the assay with SN12C renal was over 100 µM each time. Further, the TGI in the assay on KM12 colon, with ACHN renal and with OVCAR-4 ovarian was over 100 µM each time.
As to `CC(=NCCN(CCN=C(C)c1c(O)cc(C)oc1=O)CCN=C(C)c1c(O)cc(C)oc1=O)c1c(O)cc(C)oc1=O`, the TGI in the assay on SK-MEL-28 melanoma, in the assay with K-562 leukemia, in the assay with MDA-N, in the assay on 786-0 renal, with SN12C renal and with KM12 colon was over 100 µM throughout. Also, the TGI in the assay on ACHN renal and in the assay with OVCAR-4 ovarian was over 100 µM in each case.
As for `CC(C)[C@H]1NC(=O)[C@H]2N=C(O[C@@H]2C)[C@@H]2CCCN2C(=O)[C@H](Cc2ccccc2)NC(=O)[C@@H]2CSC(=N2)[C@@H](Cc2ccccc2)NC(=O)[C@@H]2CSC1=N2`, the TGI in the assay on SK-MEL-28 melanoma, in the assay on MALME-3M melanoma, in the assay on K-562 leukemia, in the assay with MDA-N, in the assay on SK-MEL-2 melanoma and in the assay with 786-0 renal was over 100 µM each time. Also, the TGI in the assay on SN12C renal, in the assay with KM12 colon, in the assay on ACHN renal and in the assay on OVCAR-4 ovarian was over 100 µM in each case.
Consider `C=C(CC(=O)Nc1ccc(C(=O)OC)o1)C(=O)OC`, for which the TGI in the assay with SK-MEL-28 melanoma is 44.6 µM; in the assay with MALME-3M melanoma, 39.3 µM; in the assay with HOP-92 NSCLC, over 100 µM; in the assay on SK-MEL-2 melanoma, 46.7 µM; in the assay with 786-0 renal it was 39.6 µM; in the assay on SN12C renal it was 45.2 µM. In addition, the results for the TGI in the assay with KM12 colon, with ACHN renal and in the assay with OVCAR-4 ovarian were 42.5 µM, 34.6 µM and 71.6 µM, respectively.
On to `O=C1CCCC2=C1C(c1ccc3c(c1)OCO3)Nc1ccc3ccccc3c12` (configuration not stated), for which the TGI in the assay with SK-MEL-28 melanoma, in the assay on MALME-3M melanoma, in the assay on MDA-N, in the assay with SK-MEL-2 melanoma, in the assay with 786-0 renal and in the assay with SN12C renal was over 100 µM each time. In addition, the TGI with KM12 colon was over 100 µM; in the assay with ACHN renal, 65.7 µM.
For the compound `COc1cccc2c1C1(O)C2CCCC12OCCCO2` (configuration not stated), the TGI in the assay on SK-MEL-28 melanoma, in the assay with MALME-3M melanoma, in the assay on K-562 leukemia, in the assay on SK-MEL-2 melanoma, in the assay on 786-0 renal and with SN12C renal was over 100 µM throughout. In addition, the TGI with KM12 colon, with ACHN renal and in the assay on OVCAR-4 ovarian was over 100 µM each time.
Turning to `CC(=O)NC1=C(C)C(=O)c2c(nc3n2CCC3O)C1=O` (configuration not stated), the TGI in the assay with SK-MEL-28 melanoma is over 100 µM; in the assay with MALME-3M melanoma, 37.5 µM; in the assay with HOP-92 NSCLC, 33.3 µM; in the assay with K-562 leukemia it was 44.3 µM; in the assay on SK-MEL-2 melanoma, 42.8 µM; with 786-0 renal, over 100 µM. Moreover, the TGI was over 100 µM with SN12C renal, over 100 µM with KM12 colon, over 100 µM in the assay on ACHN renal and 29.7 µM in the assay with OVCAR-4 ovarian.
For `CC1CCc2c(sc3ncnc(N/N=C/c4ccc(Cl)c(Cl)c4)c23)C1` (configuration not stated), the TGI was over 100 µM in the assay with SK-MEL-28 melanoma; over 100 µM with MALME-3M melanoma; over 100 µM in the assay with K-562 leukemia; over 100 µM in the assay on SK-MEL-2 melanoma; 55.8 µM with 786-0 renal; over 100 µM in the assay with SN12C renal. Also, the TGI in the assay on ACHN renal was determined as 58 µM.
Turning to `O=c1[nH]c2ccccc2nc1/C=C(\O)C(F)F`, the TGI in the assay with SK-MEL-28 melanoma, in the assay with MALME-3M melanoma, in the assay on K-562 leukemia, in the assay with MDA-N, in the assay with SK-MEL-2 melanoma and in the assay with 786-0 renal was over 100 µM throughout. Moreover, the TGI with SN12C renal, in the assay on KM12 colon, in the assay on ACHN renal and with OVCAR-4 ovarian was over 100 µM throughout.
On to `O=C(NC1(C(=O)NNc2nnc(-c3ccccc3)c(-c3ccccc3)n2)C(c2ccccc2)C(c2ccccc2)=NN1c1ccccc1)c1ccccc1` (configuration not stated), for which the TGI with MALME-3M melanoma, with HOP-92 NSCLC, in the assay with SK-MEL-2 melanoma, in the assay with 786-0 renal, with KM12 colon and in the assay with ACHN renal was over 100 µM throughout. Also, the TGI in the assay on OVCAR-4 ovarian was over 100 µM.
